# Data reported in patent US4681091A, “Combination modality cancer therapy” (priority 1985, dated 1987).
# Where two headings read alike, the source gives them in different places.
# Tests used:
# [1] = in vitro; settings: salmonella typhimurium tm677, N/No (toxicity)
# [2] = system: bacterial cells (salmonella typhimurium TM677)
# [3] = system: bacterial cells (salmonella typhimurium TM677); settings: salmonella typhimurium tm677, 0 h, 200 µM
# [4] = system: mammalian cell culture; assay: cells
# Excerpt: Immediately after addition of the drug to the culture media, the petri dishes containing the cells are placed into aluminium chambers which are then degassed and purged with nitrogen to produce hypoxia. The degassing/back-filling cycle is repeated two times and the cells are irradiated with cobalt-60 gamma rays in the aluminium chambers at the end of the two hours. Control, un-irradiated cell cultures are exposed to the drug in various concentrations to assess drug cytotoxicity. Immediately following irradiation the cells are removed from the petri dishes using trypsin enzyme for 6 minutes, pipetted into single cell suspensions, and serially diluted for subculturing in triplicate petri dishes containing 5 cc of fresh culture media without the test compound. These dishes are incubated in 5% CO2 at 37° C. for 10 days and, following staining, the colonies are counted to produce survival curves (surviving fraction of cells versus compound concentration or radiation dose). As in the bacterial radiosensitization tests, baseline curves for irradiation of the mammalian cells under oxic and hypoxic conditions in the absence of the compound are also determined to allow a quantitative estimation of the efficiency of the compound in sensitizing the cells to radiation-induced killing by deriving enhancement ratios.
# In FIG. 3, the dotted line represents the standard or average reported misonidazole response. The symbols " " and ` ` represent experimental misonidazole response and the experimental Rh compound response respectively.
# [5] = system: mammalian cell culture; settings: for 1 hour Aerobic Cytotoxicity: aerobic mammalian cell culture; for 1 hour hypoxic cytotoxicity: hypoxic mammalian cell culture
compound,measurement,setting,value
"O=[N+]([O-])[Rh-3]([N+](=O)[O-])([N+](=O)[O-])([N+](=O)[O-])([N+](=O)[O-])[N+](=O)[O-].[K+].[K+].[K+] [Compound 2, potassium hexanitrorhodium (III)]","viability at 0 h, 200 µM",[1],100%
same,"viability at 0.5 h, 200 µM",[1],105%
same,"improvement for cell-kill (N/No), sensitised vs unsensitised cells",[2],dramatic improvement for cell-kill (N/No)
same,N/No (toxicity),[3],1
NCCN.NCCN.[Cl-].[Cl-].[Cl-].[Cl-].[Cl-].[Cl-].[Cl-].[Cl-].[NH3+]CC[NH3+].[Rh+3].[Rh+3] [[RhenCl4]2 [enH2]],aerobic (oxic) response,"[4]; FIG. 3, aerobic (oxic)",effectively zero
same,effectiveness compared with misonidazole,[4]; from concentrations giving ser 1.6,75%
same,1 hour Aerobic Cytotoxicity,[5]; 100 µM,78.0%
same,1 hour Aerobic Cytotoxicity,[5]; 1000 µM,61.0%
same,1 hour Aerobic Cytotoxicity,[5]; 10000 µM,6.1%
same,1 hour hypoxic cytotoxicity,[5]; 100 µM,95%
same,1 hour hypoxic cytotoxicity,[5]; 330 µM,83.6%
same,1 hour hypoxic cytotoxicity,[5]; 1000 µM,62.7%
same,1 hour hypoxic cytotoxicity,[5]; 3300 µM,22%
same,1 hour hypoxic cytotoxicity,[5]; 10000 µM,< 1%
"COCC(O)Cn1ccnc1[N+](=O)[O-] (stereo not shown) [misonidazole, reference compound]",EC (SER 1.6),[4]; read-out: C1.6: concentration required to give an ser (sensitizer enhancement ratio) of 1.6,1500 µM
[O-2].[O-2].[O-2].[Rh+3].[Rh+3] [rhodium oxide],"toxicity, water solubility or sensitisation effect (combined statement)",[2],"either too toxic, not soluble in water or failed altogether to show a sensitisation effect"
[Cl][Rh]([Cl])[Cl] [rhodium trichloride],"toxicity, water solubility or sensitisation effect (combined statement)",[2],"either too toxic, not soluble in water or failed altogether to show a sensitisation effect"
CCCC[N+](CCCC)(CCCC)CCCC.[C-]#[O+].[C-]#[O+].[Cl-].[Cl-].[Rh+] [tetra-n-butylammoniumdicarbonyldichlororhodium (I)],"toxicity, water solubility or sensitisation effect (combined statement)",[2],"either too toxic, not soluble in water or failed altogether to show a sensitisation effect"
dichlorobis (ethylenediamine) rhodium (III) [Compound 3],"improvement for cell-kill (N/No), sensitised vs unsensitised cells",[2],dramatic improvement for cell-kill (N/No)
